Laboratory results taken from patent publication US20140315933A1, “CHEMICAL COMPOUNDS” (Pfizer Limited, priority 2013, published 2014).
Counter-ions that a name gives are not always drawn.

target: T1, URAT-1 transporter (Homo sapiens, UniProt Q96S37); experiment: URAT-1 inhibitor activity: [14C]-uric acid uptake into CHO-URAT1(L)GFP#8 (CHO#8) cells, scintillation proximity; format: cell-based
T1 construct: expressed in transfected cells
Procedure, shortened: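 CHO cells stably expressing human URAT1 long isoform C-terminally fused to eGFP, preincubated 1 hour in chloride-containing buffer, then 15 minutes with compound (0–10 μM, 0.25% DMSO) in chloride-free buffer pH 7.4. [14C]-uric acid at 30 nM final added; uptake read by scintillation proximity after three hours at room temperature, dark.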

T1 sequence (Q96S37 with tags, fused parts or gaps): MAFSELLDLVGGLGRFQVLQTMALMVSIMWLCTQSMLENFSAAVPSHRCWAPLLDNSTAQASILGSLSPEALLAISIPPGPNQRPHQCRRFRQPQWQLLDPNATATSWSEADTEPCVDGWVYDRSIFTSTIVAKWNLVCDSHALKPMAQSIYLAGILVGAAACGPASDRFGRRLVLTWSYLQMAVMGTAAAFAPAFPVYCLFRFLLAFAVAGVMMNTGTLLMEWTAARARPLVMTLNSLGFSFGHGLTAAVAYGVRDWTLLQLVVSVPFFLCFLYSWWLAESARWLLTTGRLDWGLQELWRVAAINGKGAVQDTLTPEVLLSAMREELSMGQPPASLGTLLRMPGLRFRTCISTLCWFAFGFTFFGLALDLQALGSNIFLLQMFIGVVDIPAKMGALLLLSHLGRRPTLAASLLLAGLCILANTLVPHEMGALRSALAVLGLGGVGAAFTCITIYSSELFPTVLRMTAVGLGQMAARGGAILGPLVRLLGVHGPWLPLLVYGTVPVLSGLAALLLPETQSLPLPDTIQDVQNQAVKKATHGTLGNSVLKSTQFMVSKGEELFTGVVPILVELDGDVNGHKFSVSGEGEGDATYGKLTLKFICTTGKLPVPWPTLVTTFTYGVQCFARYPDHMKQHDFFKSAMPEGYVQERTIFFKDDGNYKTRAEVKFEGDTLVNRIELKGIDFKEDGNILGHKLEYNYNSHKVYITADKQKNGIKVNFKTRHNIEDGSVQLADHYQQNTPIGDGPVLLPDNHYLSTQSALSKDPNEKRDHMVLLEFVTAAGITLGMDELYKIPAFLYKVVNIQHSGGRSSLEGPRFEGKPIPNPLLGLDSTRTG

IC50 | SMILES
> 10 µM | N#Cc1cc(Oc2ccc(S(=O)(=O)Nc3cscn3)c(Cl)c2)ccc1F [compound 236]
> 10 µM | O=S(=O)(Nc1cscn1)c1ccc(Oc2ccc(F)c(F)c2)cc1Cl [compound 237]
> 10 µM | O=S(=O)(Nc1cscn1)c1cc(F)c(Oc2ccc(F)c(F)c2)cc1F [compound 238]
> 10 µM | N#Cc1ccc(Oc2cc(F)c(S(=O)(=O)Nc3cscn3)cc2Cl)cc1Cl [compound 239]
0.577 µM | N#Cc1cc(Oc2ccc(S(=O)(=O)Nc3cscn3)cc2I)ccc1F [compound 240]
> 10 µM | O=S(=O)(Nc1cscn1)c1ccc(Oc2ccc(F)c(F)c2)c(I)c1 [compound 241]
0.967 µM | N#Cc1cc(Oc2ccc(S(=O)(=O)Nc3nccs3)cc2F)ccc1F [compound 242]
1.32 µM | N#Cc1cc(S(=O)(=O)Nc2ncns2)ccc1Oc1c(F)cccc1Cl [compound 251]
1.11 µM | Cc1cncc(Oc2ccc(S(=O)(=O)Nc3ncns3)cc2C#N)c1 [compound 252, trifluoroacetic acid salt]
2.13 µM | N#Cc1cc(S(=O)(=O)Nc2ncns2)ccc1Oc1cccnc1 [compound 253, trifluoroacetic acid salt]
0.878 µM | CSc1ncccc1Oc1ccc(S(=O)(=O)Nc2ncns2)cc1C#N [compound 254, trifluoroacetic acid salt]
0.684 µM | CCSc1ncccc1Oc1ccc(S(=O)(=O)Nc2ncns2)cc1C#N [compound 255, trifluoroacetic acid salt]
> 4.82 µM | COc1ccc(Oc2ccc(S(=O)(=O)Nc3ncns3)cc2C#N)c(C)c1 [compound 256]
1.2 µM | COc1ccc(Oc2ccc(S(=O)(=O)Nc3ncns3)cc2C#N)cc1F [compound 257]
3.12 µM | Cc1ccc(Oc2ccc(S(=O)(=O)Nc3ncns3)cc2C#N)cc1 [compound 258]
3.13 µM | CCOc1cc(C)ccc1Oc1ccc(S(=O)(=O)Nc2ncns2)cc1C#N [compound 259]
1.96 µM | Cc1cccc(Oc2ccc(S(=O)(=O)Nc3ncns3)cc2C#N)c1 [compound 260]
1.82 µM | COc1ccc(Cl)c(Oc2ccc(S(=O)(=O)Nc3ncns3)cc2C#N)c1 [compound 261]
3.58 µM | CC(C)Oc1ccc(F)cc1Oc1ccc(S(=O)(=O)Nc2ncns2)cc1C#N [compound 262]
2.25 µM | COc1cccc(Cl)c1Oc1ccc(S(=O)(=O)Nc2ncns2)cc1C#N [compound 263]
1.65 µM | COc1c(F)ccc(Oc2ccc(S(=O)(=O)Nc3ncns3)cc2C#N)c1C [compound 264]

IC50 | SMILES
2.43 µM | COc1cccc(F)c1Oc1ccc(S(=O)(=O)Nc2ncns2)cc1C#N [compound 265]
1.57 µM | COc1c(Oc2ccc(S(=O)(=O)Nc3ncns3)cc2C#N)ccc(F)c1C [compound 266]
0.93 µM | COc1cc(Cl)ccc1Oc1ccc(S(=O)(=O)Nc2ncns2)cc1C#N [compound 267]
1.47 µM | COc1ccc(Oc2ccc(S(=O)(=O)Nc3ncns3)cc2C#N)cc1Cl [compound 268]
0.278 µM | COc1cc(Cl)cc(Oc2ccc(S(=O)(=O)Nc3ncns3)cc2C#N)c1 [compound 269]
0.957 µM | COc1cc(F)c(F)cc1Oc1ccc(S(=O)(=O)Nc2ncns2)cc1C#N [compound 270]
4.54 µM | COc1ccccc1Oc1ccc(S(=O)(=O)Nc2ncns2)cc1C#N [compound 271]
> 4.32 µM | Cc1ccncc1Oc1ccc(S(=O)(=O)Nc2ncns2)cc1C#N [compound 272, trifluoroacetic acid salt]
> 10 µM | CCc1ncccc1Oc1ccc(S(=O)(=O)Nc2ncns2)cc1C#N [compound 273, trifluoroacetic acid salt]
> 10 µM | CC(C)c1ncccc1Oc1ccc(S(=O)(=O)Nc2ncns2)cc1C#N [compound 274, trifluoroacetic acid salt]
> 10 µM | Cc1ccnc(C)c1Oc1ccc(S(=O)(=O)Nc2ncns2)cc1C#N [compound 275, trifluoroacetic acid salt]
> 10 µM | CCc1nc(C)ccc1Oc1ccc(S(=O)(=O)Nc2ncns2)cc1C#N [compound 276, trifluoroacetic acid salt]
> 5.43 µM | COc1ccc(F)cc1Oc1ccc(S(=O)(=O)Nc2ncns2)cc1C#N [compound 277]
2.74 µM | CC(C)Oc1ccccc1Oc1ccc(S(=O)(=O)Nc2ncns2)cc1C#N [compound 278]
> 10 µM | CCOc1ccc(Oc2ccc(S(=O)(=O)Nc3ncns3)cc2C#N)cc1 [compound 279]
2.29 µM | CCOc1cccc(Oc2ccc(S(=O)(=O)Nc3ncns3)cc2C#N)c1 [compound 280]
3.25 µM | CCOc1ccccc1Oc1ccc(S(=O)(=O)Nc2ncns2)cc1C#N [compound 281]
1.66 µM | COc1ccc(F)c(Oc2ccc(S(=O)(=O)Nc3ncns3)cc2C#N)c1F [compound 282]
> 8.57 µM | COc1c(Cl)cccc1Oc1ccc(S(=O)(=O)Nc2ncns2)cc1C#N [compound 283]
2.52 µM | COc1ccc(C)cc1Oc1ccc(S(=O)(=O)Nc2ncns2)cc1C#N [compound 284]
5.59 µM | COc1cc(C)ccc1Oc1ccc(S(=O)(=O)Nc2ncns2)cc1C#N [compound 285]

IC50 | SMILES
1.01 µM | COc1cc(F)ccc1Oc1ccc(S(=O)(=O)Nc2ncns2)cc1C#N [compound 286]
1.44 µM | COc1ccc(F)c(Oc2ccc(S(=O)(=O)Nc3ncns3)cc2C#N)c1 [compound 287]
0.431 µM | Cc1c(Oc2ccc(S(=O)(=O)Nc3ncns3)cc2C#N)ccc(F)c1F [compound 288]
0.479 µM | COc1cc(F)cc(Oc2ccc(S(=O)(=O)Nc3ncns3)cc2C#N)c1 [compound 289]
1.1 µM | COc1ccc(Oc2ccc(S(=O)(=O)Nc3ncns3)cc2C#N)c(Cl)c1 [compound 290]
1.13 µM | N#Cc1cc(S(=O)(=O)Nc2ncns2)ccc1Oc1cccc(Cl)c1 [compound 291]
1.13 µM | COc1cc(C)cc(Oc2ccc(S(=O)(=O)Nc3ncns3)cc2C#N)c1 [compound 292]
> 6.15 µM | COc1cccc(Oc2ccc(S(=O)(=O)Nc3ncns3)cc2C#N)c1C [compound 293]
0.888 µM | N#Cc1cc(S(=O)(=O)Nc2ncns2)ccc1Oc1ccc(F)cc1 [compound 294]
0.478 µM | CC(C)Oc1ccc(F)cc1Oc1cc(F)c(S(=O)(=O)Nc2nncs2)cc1Cl [compound 295]
> 10 µM | COc1cc(C#N)ccc1Oc1cc(F)c(S(=O)(=O)Nc2nncs2)cc1Cl [compound 296]
1.01 µM | COc1cc(F)cc(Oc2cc(F)c(S(=O)(=O)Nc3nncs3)cc2Cl)c1 [compound 297]
4.39 µM | CC(C)c1ncccc1Oc1cc(F)c(S(=O)(=O)Nc2nncs2)cc1Cl [compound 298]
4.37 µM | COc1cc(C)ccc1Oc1cc(F)c(S(=O)(=O)Nc2nncs2)cc1Cl [compound 299]
0.329 µM | COc1ccc(C)cc1Oc1cc(F)c(S(=O)(=O)Nc2nncs2)cc1Cl [compound 300]
0.382 µM | COc1cc(C)cc(Oc2cc(F)c(S(=O)(=O)Nc3nncs3)cc2Cl)c1 [compound 301]
1.06 µM | COc1cc(Cl)cc(Oc2cc(F)c(S(=O)(=O)Nc3nncs3)cc2Cl)c1 [compound 302]
> 1.43 µM | COc1cccc(Cl)c1Oc1cc(F)c(S(=O)(=O)Nc2nncs2)cc1Cl [compound 303]
1.01 µM | CCSc1ncccc1Oc1cc(F)c(S(=O)(=O)Nc2nncs2)cc1Cl [compound 304]
> 5.78 µM | COc1ccccc1Oc1cc(F)c(S(=O)(=O)Nc2nncs2)cc1Cl [compound 305]
2.41 µM | COc1cccc(Oc2cc(F)c(S(=O)(=O)Nc3nncs3)cc2Cl)c1 [compound 306]

IC50 | SMILES
> 7.19 µM | CCc1ncccc1Oc1cc(F)c(S(=O)(=O)Nc2nncs2)cc1Cl [compound 307]
> 10 µM | Cc1ccnc(C)c1Oc1cc(F)c(S(=O)(=O)Nc2nncs2)cc1Cl [compound 308]
> 10 µM | COc1ccc(C#N)cc1Oc1cc(F)c(S(=O)(=O)Nc2nncs2)cc1Cl [compound 309]
0.864 µM | CSc1ncccc1Oc1cc(F)c(S(=O)(=O)Nc2nncs2)cc1Cl [compound 310]
1.1 µM | Cc1cncc(Oc2cc(F)c(S(=O)(=O)Nc3nncs3)cc2Cl)c1 [compound 311]
> 6.45 µM | COc1cc(F)ccc1Oc1cc(F)c(S(=O)(=O)Nc2nncs2)cc1Cl [compound 312]
3.17 µM | Cc1ccncc1Oc1cc(F)c(S(=O)(=O)Nc2nncs2)cc1Cl [compound 313]
> 10 µM | Cc1ccc(Oc2cc(F)c(S(=O)(=O)Nc3nncs3)cc2Cl)cc1 [compound 314]
2.19 µM | COc1ccc(F)c(Oc2cc(F)c(S(=O)(=O)Nc3nncs3)cc2Cl)c1 [compound 315]
> 10 µM | COc1cc(C#N)c(F)cc1Oc1cc(F)c(S(=O)(=O)Nc2nncs2)cc1Cl [compound 316]
1.63 µM | COc1ccc(Oc2cc(F)c(S(=O)(=O)Nc3nncs3)cc2Cl)c(Cl)c1 [compound 317]
0.145 µM | Cc1c(Oc2cc(F)c(S(=O)(=O)Nc3nncs3)cc2Cl)ccc(F)c1F [compound 318, 5-chloro-4-(3,4-difluoro-2-methylphenoxy)-2-fluoro-N-(1,3,4-thiadiazol-2-yl)benzenesulfonamide]
> 1.71 µM | COc1c(Oc2cc(F)c(S(=O)(=O)Nc3nncs3)cc2Cl)ccc(F)c1C [compound 319]
> 7.61 µM | COc1ccc(Oc2cc(F)c(S(=O)(=O)Nc3nncs3)cc2Cl)cc1Cl [compound 320]
0.275 µM | COc1cccc(C)c1Oc1cc(F)c(S(=O)(=O)Nc2nncs2)cc1Cl [compound 321]
2.99 µM | Cc1cc(Oc2cc(F)c(S(=O)(=O)Nc3nncs3)cc2Cl)ccc1F [compound 322]
2.17 µM | COc1cccc(Oc2cc(F)c(S(=O)(=O)Nc3nncs3)cc2Cl)c1C [compound 323]
3.28 µM | COc1ccc(Oc2cc(F)c(S(=O)(=O)Nc3nncs3)cc2Cl)cc1F [compound 324]
2 µM | CC(C)Oc1ccccc1Oc1cc(F)c(S(=O)(=O)Nc2nncs2)cc1Cl [compound 325]
0.369 µM | COc1ccc(Cl)c(Oc2cc(F)c(S(=O)(=O)Nc3nncs3)cc2Cl)c1 [compound 326]
